Experimental data reported in patent US20230174454A1, “PROCESS OF SYNTHESIZING AND PURIFYING (3R)-HYDROXYBUTYL (3R)-HYDROXYBUTANOATE” (Genomatica, Inc., priority 2020, published 2023).

Legend:
[1] = Study to determine the boiling point of (3R)-hydroxybutyl (3R)-hydroxybutyrate, with colour change on boiling; format: physicochemical
Protocol: A study to determine the boiling point of (3R)-hydroxybutyl (3R)-hydroxybutyrate was performed.

Miscibility with water = format: physicochemical
From the text: In one specific embodiment, the compound of interest is (R)-3-hydroxybutyl (R)-3-hydroxybutanoate.

- Measured Boiling Point ([1]; Pressure 7 mbar): 155-159 °C
- Measured Boiling Point ([1]; Pressure 15 mbar): 165-169 °C
- Measured Boiling Point ([1]; Pressure 30 mbar): 174-179 °C
- Measured Boiling Point ([1]; Pressure 60 mbar): 186-191 °C
- Measured Boiling Point ([1]; Pressure 80 mbar): 197-204 °C
- Measured Boiling Point ([1]; Pressure 120 mbar): 208-212 °C
- Measured Boiling Point ([1]; Pressure 240 mbar): 215-219 °C
- Measured Boiling Point ([1]; Pressure 500 mbar): 224-229 °C
- Measured Boiling Point ([1]; Pressure 1000 mbar): 274-280 °C
- Color Change ([1]; boiling at 7 mbar): no color change after 2 h of boiling
- Color Change ([1]; boiling at 15 mbar): no color change after 2 h of boiling
- Color Change ([1]; boiling at 30 mbar): no color change after 2 h of boiling
- Color Change ([1]; boiling at 60 mbar): no color change after 2 h of boiling
- Color Change ([1]; boiling at 80 mbar): no color change after 2 h of boiling
- miscibility with water (Miscibility with water; 50/50 (w/w) mixture of water/(R)-3-hydroxybutyl (R)-3-hydroxybutanoate): completely miscible with water
- miscibility with water (Miscibility with water; 60/40 (w/w) mixture of water/(R)-3-hydroxybutyl (R)-3-hydroxybutanoate): completely miscible with water
SMILES: C[C@@H](O)CCOC(=O)C[C@@H](C)O [(3R)-hydroxybutyl (3R)-hydroxybutyrate, (R)-3-hydroxybutyl (R)-3-hydroxybutanoate]
- Color Change ([1]; boiling at 120 mbar): no color change after 1 h of boiling, very slight yellow tint is present after 1 h and 30 min of boiling
- Color Change ([1]; boiling at 240 mbar): no color change after 1 h of boiling, very slight yellow tint is present after 1 h and 30 min of boiling
- Color Change ([1]; boiling at 500 mbar): no color change after 1 h of boiling, very slight yellow tint is present after 1 h and 30 min of boiling
- Color Change ([1]; boiling at 1000 mbar): slight yellow tint is present after 1 hour of boiling
